Legend:
[1] = tested on: Triton WR 1339 induced dyslipidemia in Albino rats (Sprague Dawley strain); experiment: Screening of hypolipidemic activity, Triton WR 1339 induced dyslipidemia model (Example 18); type: in vivo, rat
Description: Twenty four male Albino rats (Sprague Dawley strain) weighing approximate 250-300 gm were selected for the study. The animals were kept in the animal house maintained at temp 24±2° C., 65% relative humidity and 12 hr light/dark cycle. The rats were acclimatized for two weeks and during this period they had access to standard pellet diet and water ad libitum. After two weeks of acclimatization, all the rats were fasted overnight before injecting Triton WR 1339 (Tyloxapol) and administration of test extracts/standard. The animals were divided into four groups Following treatment was given to overnight fasted rats: • Group I: Normal control (vehicle only). • Group II: Triton WR 1339 (300 mg/kg, intraperitoneal). • Group III: Triton WR 1339 (300 mg/kg, intraperitoneal) followed by amla seed extract prepare as per example 1 (10 mg/kg, per oral). • Group IV: Triton WR 1339 (300 mg/kg, intraperitoneal) followed by Atorvastatin (10 mg/kg, per oral).
(§1) The animals were deprived of food for next 24 hours but had free access to water ad libitum. After 24 hour of drug treatment 2 ml blood samples were collected from the retro orbital plexus. The blood was allowed to clot and then centrifuged at 3000 rpm for 10 min and the serum was carefully drawn and collected into separate tubes. The serum was analyzed for total cholesterol, triglycerides, high density lipoproteins (HDL), low density lipoproteins (LDL) and very low density lipoproteins (VLDL) levels using auto-analyzer.

[2] = tested on: Triton WR 1339 induced dyslipidemia in Albino rats (Sprague Dawley strain); experiment: Hypolipidemic activity compared with other amla extracts, Triton WR 1339 model (Example 25); type: in vivo, rat
Description: Forty eight male Albino rats (Sprague Dawley strain) weighing approximate 250-300 gm were selected for the study. The animals were kept in the animal house maintained at temp 24±2° C., 65% relative humidity and 12 hr light/dark cycle. The rats were acclimatized for two weeks and during this period they had access to standard pellet diet and water ad libitum. After two weeks of acclimatization, all the rats were fasted overnight before injecting Triton WR 1339 (Tyloxapol) and administration of test extracts/standard. The animals were divided into twelve groups. Following treatment was given to overnight fasted rats: • Group I: Normal control (vehicle only). • Group II: Triton WR 1339 (300 mg/kg, intraperitoneal). • Group III: Triton WR 1339 (300 mg/kg, intraperitoneal) followed by ethyl acetate of methanol extract of amla seed prepared as per example 1 (2.5 mg/kg, per oral). • Group IV: Triton WR 1339 (300 mg/kg, intraperitoneal) followed by water part of methanol extract of amla seed prepared as per example 1 (2.5 mg/kg, per oral). • Group V: Triton WR 1339 (300 mg/kg, intraperitoneal) followed by ethyl acetate extract of amla seed prepared as per example 2 (2.5 mg/kg, per oral). • Group VI: Triton WR 1339 (300 mg/kg, intraperitoneal) followed by powder of dried amla seed prepared as per example 7 (2.5 mg/kg, per oral). • Group VII: Triton WR 1339 (300 mg/kg, intraperitoneal) followed by water extract of dried amla seed powder prepared as per example 8 (2.5 mg/kg, per oral). • Group VIII: Triton WR 1339 (300 mg/kg, intraperitoneal) followed by methanol extract of dried amla seed powder prepared as per example 9 (2.5 mg/kg, per oral). • Group IX: Triton WR 1339 (300 mg/kg, intraperitoneal) followed by powder of dried amla fruit prepared as per example 10 (2.5 mg/kg, per oral). • Group X: Triton WR 1339 (300 mg/kg, intraperitoneal) followed by water extract of dried Amla fruit powder prepared as per example 11 (2.5 mg/kg, per oral). • Group XI: Triton WR 1339 (300 mg/kg, intraperitoneal) followed by methanol extract of dried amla fruit powder prepared as per example 12 (2.5 mg/kg, per oral). • Group XII: Triton WR 1339 (300 mg/kg, intraperitoneal) followed by atorvastatin (2.5 mg/kg, per oral).
as §1

cholesterol fed rabbits = experiment: Hypolipidemic activity in cholesterol fed rabbits (Example 23); type: in vivo, rabbit
Description: The amla seed extract as prepared in example 1 was evaluated for hypolipidemic activity in experimental rabbits. Male NZ white rabbits weighing 1.5-2.0 kg were used for the experiment. They were housed in a temperature-controlled room (25±2° C.) in clean stainless steel cages with ‘12 h light and 12 h dark’ cycles and fed with normal pellet diet and water ad libitum.
After the acclimatization period of 10 days, blood samples were collected from marginal ear vein of all the rabbits. The blood was allowed to clot and then centrifuged at 3000 rpm for 10 min and the serum was carefully drawn and collected into separate tubes. The serum was analyzed for total cholesterol, triglycerides, high density lipoproteins (HDL), low density lipoproteins (LDL) and very low density lipoproteins (VLDL) levels using auto-analyzer.
After taking baseline lipid profile the animals were divided into four groups having six animals in each group. Following treatment was given to the animals for the three months:
Blood samples were collected from all the rabbits after 3 months of treatment and serum was analyzed for lipid profile. After blood collection the animals were sacrificed after injecting pentobarbitone and aorta was dissected out, washed with saline and preserved in 10% formalin for histopathology. The sections were cut using microtome and stained with heamatoxylin & eosin dye and mounted on glass slides. The slides were observed under microscope and aortic intima media thickness (IMT) was measured by histomorphometry.

[3] = 24 h after Triton i.p. + 10 mg/kg p.o.
[4] = 24 h after Triton i.p. + 2.5 mg/kg p.o.
[5] = after 3 months cholesterol 100 mg/kg + 10 mg/kg

In the case of CC(C)c1c(C(=O)Nc2ccccc2)c(-c2ccccc2)c(-c2ccc(F)cc2)n1CC[C@@H](O)C[C@@H](O)CC(=O)O [Atorvastatin], the “effect on cholesterol and triglyceride level” value ([1]; 10 mg/kg p.o.) is reported as “effective in lowering the cholesterol as well as triglyceride level”, the “HDL After” value [1, 3] is reported as 32.37 mg/dL and the “LDL After” value [1, 3] is reported as 77.61 mg/dL. The “TC After” value [1, 3] was 131.9 mg/dL, the “TG After” value [1, 3] was 109.67 mg/dL and the “VLDL After” value [1, 3] was 21.93 mg/dL. The “HDL Before” value ([1]; baseline, 10 mg/kg p.o. group) was 29.13 mg/dL, the “LDL Before” value ([1]; baseline, 10 mg/kg p.o. group) was 62.43 mg/dL and the “TC Before” value ([1]; baseline, 10 mg/kg p.o. group) was 100.4 mg/dL. The “TG Before” value ([1]; baseline, 10 mg/kg p.o. group) was 44.26 mg/dL, the “VLDL Before” value ([1]; baseline, 10 mg/kg p.o. group) was 8.85 mg/dL and the “effect on cholesterol and triglyceride levels” value ([2]; 2.5 mg/kg p.o.) was “effective in lowering the cholesterol as well as triglyceride levels”. For the same molecule, the “HDL After” value [2, 4] was 39.56 mg/dL, the “LDL After” value [2, 4] was 44.53 mg/dL and the “TC After” value [2, 4] was 123.14 mg/dL. The “TG After” value [2, 4] was 195.25 mg/dL, the “VLDL After” value [2, 4] was 39.05 mg/dL and the “HDL Before” value ([2]; baseline, 2.5 mg/kg p.o. group) was 36.54 mg/dL. The “LDL Before” value ([2]; baseline, 2.5 mg/kg p.o. group) was 57.99 mg/dL, the “TC Before” value ([2]; baseline, 2.5 mg/kg p.o. group) was 104.44 mg/dL and the “TG Before” value ([2]; baseline, 2.5 mg/kg p.o. group) was 49.54 mg/dL. For the same molecule, the “VLDL Before” value ([2]; baseline, 2.5 mg/kg p.o. group) was 9.91 mg/dL, the “effect on total cholesterol and triglyceride level” value (cholesterol fed rabbits; 10 mg/kg, 3 months, compared to untreated control group) was “decreased the total cholesterol and triglyceride level significantly” and the “HDL After” value (cholesterol fed rabbits; [5]) was 20.37 mg/dL. The “LDL After” value (cholesterol fed rabbits; [5]) was 82.8 mg/dL, the “TC After” value (cholesterol fed rabbits; [5]) was 118.9 mg/dL and the “TG After” value (cholesterol fed rabbits; [5]) was 78.67 mg/dL. The “VLDL After” value (cholesterol fed rabbits; [5]) was 15.73 mg/dL, the “Aortic intima media thickness” value (cholesterol fed rabbits; after 3 months cholesterol 100 mg/kg + 10 mg/kg, histomorphometry) was 112.36 μm and the “HDL Before” value (cholesterol fed rabbits; baseline, 10 mg/kg group) was 14.15 mg/dL. The “LDL Before” value (cholesterol fed rabbits; baseline, 10 mg/kg group) was 27.88 mg/dL, the “TC Before” value (cholesterol fed rabbits; baseline, 10 mg/kg group) was 53.69 mg/dL and the “TG Before” value (cholesterol fed rabbits; baseline, 10 mg/kg group) was 58.28 mg/dL. For the same molecule, the “VLDL Before” value (cholesterol fed rabbits; baseline, 10 mg/kg group) was 11.66 mg/dL.

Reference: US10286022B2, “Medicinal composition of extract of seed of emblica officinalis and method of preparing the same” (priority 2013, dated 2019)
